This is an account of results in US20020016330A1, “Materials and methods for killing nematodes and nematode eggs” (priority 2000, published 2002).

The test system of test [1] is Caenorhabditis elegans. The test is described as follows: C. elegans L1 nematicidal dose response, 5 day visual viability score (3-fold dilutions). In kind it is in vivo. Also noted: key: Dead: only stiff L1s (no movement); Dead (L4): worms are dead, but at a later larval stage; majority of worms are L1 (based on size); majority of worms are L2 (based on size); majority of worms are L3 (based on size); majority of worms are L4 (based on size); AD: majority of worms are adult; #AD: 5 adult worms or less; B!: sterile (0-25 progeny); B: low broodsize (25-100 progeny); ˜B: moderate broodsize (100-250 progeny); <: reduced broodsize (250-500 progeny); OK: no effect (˜1000+ progeny). Conditions: for 5 Day Visual Score V6: 0.3 μM; for 5 Day Visual Score V5: 0.9 μM; for 5 Day Visual Score V4: 2.6 μM; for 5 Day Visual Score V3: 7.8 μM; for 5 Day Visual Score V2: 23.3 μM; for 5 Day Visual Score V1: 70 μM. How it is done: Caenorhabditis elegans adults were grown on Nematode Growth Medium (NGM) until they produced eggs, then the adults were removed.
The eggs were allowed to hatch, and the L1 larvae collected. See The Nematode Caenorhabditis elegans (1988) Cold Spring Harbor Laboratory Press. Using a Matrix Programmable Pipette, the L1s were distributed into 96-well tissue culture plates, 20 L1 in 50 μl NGM per well. Antibiotic/Antimyotic was added to each well, and 1% by weight E. coli strain HB101. The subject anthelmintic compounds were stored at 5 mM in 100% DMSO. 0.7 μl of compounds 1-31 were added to the left-most column of wells to yield a final concentration of 70 μM in 1.4% DMSO, with 1.4% DMSO only as the control. The compounds were then subjected to 5 more 3-fold dilutions from left to right to yield 6 column concentrations of 70 μM, 23.3 μM, 7.8 μM, 2.6 μM, 0.9 μM, and 0.3 μM. Plates were stored in air-tight Rubbermaid plastic boxes at 20° C. The nematodes had cleared all control wells by day 4, and nematode viability was scored by visual examination under a 100× dissecting microscope on day 5. A visual viability scoring system was used as follows:
Column VI has a compound concentration of 70 μM with sequential 3-fold dilutions reported in columns V2, V3, V4, V5, and V6, respectively, such that the V6 concentration was 0.3 μM.
(§1) The nematicidal activity of anthelmintic Compositions 48-68 were determined in accordance with the procedure outlined in Example 2.

Test [2] has as its system Caenorhabditis elegans. The experiment in a line: Initial HTS Run (mOD, % Run, visual score). More on the design: key to Initial HTS Run Visual Score: Dead: only stiff L1s (no movement); Dead (L4): worms are dead, but at a later larval stage; majority of worms are L1 (based on size); majority of worms are L2 (based on size); majority of worms are L3 (based on size); majority of worms are L4 (based on size); AD: majority of worms are adult; #AD: 5 adult worms or less; B!: sterile (0-25 progeny); B: low broodsize (25-100 progeny); ˜B: moderate broodsize (100-250 progeny); <: reduced broodsize (250-500 progeny); OK: no effect (˜1000+ progeny). As to conditions: in vivo. As for the experimental part: as §1

Test [3] concerns Caenorhabditis elegans. The test is described as follows: Follow-up HTS Run (mOD, % Run, visual score). Also noted: key to Follow-up HTS Run Visual Score: Dead: only stiff L1s (no movement); Dead (L4): worms are dead, but at a later larval stage; majority of worms are L1 (based on size); majority of worms are L2 (based on size); majority of worms are L3 (based on size); majority of worms are L4 (based on size); AD: majority of worms are adult; #AD: 5 adult worms or less; B!: sterile (0-25 progeny); B: low broodsize (25-100 progeny); ˜B: moderate broodsize (100-250 progeny); <: reduced broodsize (250-500 progeny); OK: no effect (˜1000+ progeny). As to conditions: in vivo. As for the experimental part:
as §1

The test system of test [4] is root-knot nematode, Meloidogyne incognita. As to conditions: in vivo; cited from earlier work.
Setting [5] is: Table 3, procedure of Example 2.

SMILES strings stand for the structures.

Turning to `CC(C)(C)c1csc(NC(=O)CC2CCCc3ccccc32)n1` (stereo not drawn) [AKC 175], in test [1] (setting [5]), the “5 Day Visual Score V6” value is given as “OK (no effect (˜1000+ progeny))”, the “5 Day Visual Score V5” value is listed as “OK (no effect (˜1000+ progeny))”, the “5 Day Visual Score V4” value is recorded as “OK (no effect (˜1000+ progeny))” and the “5 Day Visual Score V3” value was “OK (no effect (˜1000+ progeny))”. Further, in test [1] (setting [5]), the “5 Day Visual Score V2” value was “OK (no effect (˜1000+ progeny))” and the “5 Day Visual Score V1” value is on record as “< (reduced broodsize (250-500 progeny))”. Also, in test [2], the “Initial HTS Run % Run” value came out at 85%, the “Initial HTS Run Visual Score” value is listed as “L4/AD/B” and the “Initial HTS Run mOD” value is recorded as 104 mOD. Also, in test [3], the “Follow-up HTS Run % Run” value worked out at 99%, the “Follow-up HTS Run Visual Score” value is given as “L4/AD/B!” and the “Follow-up HTS Run mOD” value is listed as 159 mOD.
Consider `CCCCCCCCS(=O)(=O)N1CCN(C(=O)C=Cc2cccc(C(F)(F)F)c2)CC1C(=O)NCc1ccc(C(F)(F)F)cc1` (stereo not drawn) [AKC 171], for which, in test [1] (scored day 5), the “5 Day Visual Score V3” value is given as “Dead(L4)/#A”, the “5 Day Visual Score V2” value is given as “L2” and the “5 Day Visual Score V1” value is reported as “Dead”. For the same compound, in test [1] (setting [5]), the “5 Day Visual Score V3” value is on record as “Dead”, the “5 Day Visual Score V2” value is reported as “L2” and the “5 Day Visual Score V1” value is listed as “Dead”. Besides, in test [2], the “Initial HTS Run % Run” value is on record as 101% and the “Initial HTS Run mOD” value came to 124 mOD. For the same compound, in test [3], the “Follow-up HTS Run % Run” value is on record as 111%, the “Follow-up HTS Run Visual Score” value is “Dead” and the “Follow-up HTS Run mOD” value is given as 179 mOD.
Take `COc1ccc(CC(=O)N2CCN(S(=O)(=O)c3ccc(OC)c(OC)c3)C(C(=O)NCc3cc(C(F)(F)F)cc(C(F)(F)F)c3)C2)cc1OC` (stereo not drawn) [AKC 168]: in test [1] (setting [5]), the “5 Day Visual Score V6” value was “OK (no effect (˜1000+ progeny))”, the “5 Day Visual Score V5” value is recorded as “OK (no effect (˜1000+ progeny))”, the “5 Day Visual Score V4” value is reported as “OK (no effect (˜1000+ progeny))” and the “5 Day Visual Score V3” value was “OK (no effect (˜1000+ progeny))”. Moreover, in test [1] (setting [5]), the “5 Day Visual Score V2” value is on record as “OK (no effect (˜1000+ progeny))” and the “5 Day Visual Score V1” value is on record as “L3/#AD/B!”. For the same compound, in test [2], the “Initial HTS Run % Run” value was determined as 90%, the “Initial HTS Run Visual Score” value is 5AD/B and the “Initial HTS Run mOD” value is reported as 111 mOD. Moreover, in test [3], the “Follow-up HTS Run % Run” value is 135%, the “Follow-up HTS Run Visual Score” value is recorded as 3AD/˜B and the “Follow-up HTS Run mOD” value came to 217 mOD.
In the case of `CCCCCCCCS(=O)(=O)N1CCN(C(=O)C=Cc2cccc(C(F)(F)F)c2)CC1C(=O)NCc1ccccc1C(F)(F)F` (stereo not drawn) [AKC 173], in test [1] (setting [5]), the “5 Day Visual Score V6” value is “OK (no effect (˜1000+ progeny))”, the “5 Day Visual Score V5” value is given as “OK (no effect (˜1000+ progeny))”, the “5 Day Visual Score V4” value is recorded as “OK (no effect (˜1000+ progeny))” and the “5 Day Visual Score V3” value is reported as “OK (no effect (˜1000+ progeny))”. In test [2], the “Initial HTS Run % Run” value stood at 98% and the “Initial HTS Run mOD” value is on record as 120 mOD. In test [3], the “Follow-up HTS Run % Run” value was 107% and the “Follow-up HTS Run mOD” value stood at 172 mOD.
In the case of `CC(C)(C)c1csc(NC(=O)Cc2cn(Cc3cccnc3)c3ccc(Cl)cc23)n1` [AKC 162], in test [1] (setting [5]), the “5 Day Visual Score V6” value was “OK (no effect (˜1000+ progeny))”, the “5 Day Visual Score V5” value is listed as “OK (no effect (˜1000+ progeny))”, the “5 Day Visual Score V4” value is “OK (no effect (˜1000+ progeny))” and the “5 Day Visual Score V3” value is reported as “OK (no effect (˜1000+ progeny))”. In test [1] (setting [5]), the “5 Day Visual Score V2” value is on record as “OK (no effect (˜1000+ progeny))” and the “5 Day Visual Score V1” value is reported as “< (reduced broodsize (250-500 progeny))”. Further, in test [2], the “Initial HTS Run % Run” value amounted to 111%, the “Initial HTS Run Visual Score” value is reported as “L2/L3/1AD/B!” and the “Initial HTS Run mOD” value is given as 136 mOD. Further, in test [3], the “Follow-up HTS Run % Run” value worked out at 111%, the “Follow-up HTS Run Visual Score” value is recorded as “B (low broodsize (25-100 progeny))” and the “Follow-up HTS Run mOD” value was 179 mOD.
`CCCCCCCCS(=O)(=O)N1CCN(C(=O)c2cc(C(F)(F)F)cc(C(F)(F)F)c2)CC1C(=O)NCc1ccccc1` (stereo not drawn) [AKC 165]: in test [1] (setting [5]), the “5 Day Visual Score V6” value is “OK (no effect (˜1000+ progeny))”, the “5 Day Visual Score V5” value was “OK (no effect (˜1000+ progeny))”, the “5 Day Visual Score V4” value was “OK (no effect (˜1000+ progeny))” and the “5 Day Visual Score V3” value is reported as “< (reduced broodsize (250-500 progeny))”. In test [2], the “Initial HTS Run % Run” value was found to be 115% and the “Initial HTS Run mOD” value is 142 mOD. Besides, in test [3], the “Follow-up HTS Run % Run” value stood at 126%, the “Follow-up HTS Run Visual Score” value was “Dead” and the “Follow-up HTS Run mOD” value worked out at 203 mOD.
For the compound `CC[C@H](C)[C@H]1O[C@]2(CC(O)[C@@H]1C)C[C@@H]1C[C@@H](C/C=C(\C)[C@@H](OC3CC(OC)C(OC4CC(OC)C(O)C(C)O4)C(C)O3)[C@@H](C)/C=C/C=C3\CO[C@@H]4[C@H](O)C(C)=C[C@@H](C(=O)O1)[C@]34O)O2` (stereo partly drawn) [Avermectin B2a], the “activity against the root-knot nematode” value in test [4] is “active”.
Regarding `CC(=O)Nc1ccc(S(=O)(=O)N2CCN(C(=O)c3cc(C(F)(F)F)cc(C(F)(F)F)c3)CC2C(=O)NCc2ccccc2)cc1` (stereo not drawn) [AKC 163], in test [1] (setting [5]), the “5 Day Visual Score V6” value is given as “OK (no effect (˜1000+ progeny))”, the “5 Day Visual Score V5” value is “OK (no effect (˜1000+ progeny))”, the “5 Day Visual Score V4” value is reported as “OK (no effect (˜1000+ progeny))” and the “5 Day Visual Score V3” value was “OK (no effect (˜1000+ progeny))”. Moreover, the “5 Day Visual Score V2” value in test [1] (setting [5]) was “< (reduced broodsize (250-500 progeny))”. For the same compound, in test [2], the “Initial HTS Run % Run” value amounted to 119%, the “Initial HTS Run Visual Score” value was “L2/L3(DEAD)” and the “Initial HTS Run mOD” value was found to be 146 mOD. In test [3], the “Follow-up HTS Run % Run” value worked out at 136% and the “Follow-up HTS Run mOD” value came out at 219 mOD.
In the case of `Cc1cccc2scc(CC(=O)Nc3nc(C(C)(C)C)cs3)c12` [AKC 170], in test [1] (setting [5]), the “5 Day Visual Score V6” value is recorded as “OK (no effect (˜1000+ progeny))”, the “5 Day Visual Score V5” value is recorded as “OK (no effect (˜1000+ progeny))”, the “5 Day Visual Score V4” value is reported as “OK (no effect (˜1000+ progeny))” and the “5 Day Visual Score V3” value is recorded as “OK (no effect (˜1000+ progeny))”. Further, in test [1] (setting [5]), the “5 Day Visual Score V2” value is “#AD/” and the “5 Day Visual Score V1” value is reported as “L2”. Besides, in test [2], the “Initial HTS Run % Run” value came out at 111%, the “Initial HTS Run Visual Score” value is given as “L3” and the “Initial HTS Run mOD” value is 136 mOD. In test [3], the “Follow-up HTS Run % Run” value was 139%, the “Follow-up HTS Run Visual Score” value was “L4/AD/B!” and the “Follow-up HTS Run mOD” value worked out at 223 mOD.
